{"source": "paper PMC6718442", "about": "“11β-Hydroxysteroid dehydrogenases control access of 7β,27-dihydroxycholesterol to retinoid-related orphan receptor γ” (Journal of Lipid Research, 2019)", "key": {"11β-HSD2 [1]": {"target": "T1, 11β-HSD2 (Homo sapiens, UniProt P80365)", "T1 construct": "expressed in transfected cells", "T1 sequence (P80365 1-405)": "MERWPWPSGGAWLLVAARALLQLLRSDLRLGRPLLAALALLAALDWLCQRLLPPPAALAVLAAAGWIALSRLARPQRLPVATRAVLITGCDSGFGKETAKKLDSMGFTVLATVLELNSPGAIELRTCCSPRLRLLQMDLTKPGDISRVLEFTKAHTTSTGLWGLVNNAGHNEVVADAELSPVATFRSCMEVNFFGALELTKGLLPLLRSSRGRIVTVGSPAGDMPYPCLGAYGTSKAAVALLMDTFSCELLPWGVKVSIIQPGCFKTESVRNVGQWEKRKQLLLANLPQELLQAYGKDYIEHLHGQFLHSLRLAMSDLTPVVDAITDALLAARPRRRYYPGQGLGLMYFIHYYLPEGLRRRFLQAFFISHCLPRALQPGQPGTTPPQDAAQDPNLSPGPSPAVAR", "set-up": "method as in PMID 30902677", "settings": "intact cells, oxidation by 11β-HSD2, ref [46], cited from earlier work"}, "11β-HSD2 [2]": {"target": "T1, 11β-HSD2", "settings": "substrate of 11β-HSD2, ref [34], cited from earlier work"}, "human 11β-HSD1 [3]": {"target": "T2, human 11β-HSD1 (Homo sapiens, UniProt P28845)", "T2 construct": "expressed in transfected cells", "T2 sequence (P28845 whole entry)": "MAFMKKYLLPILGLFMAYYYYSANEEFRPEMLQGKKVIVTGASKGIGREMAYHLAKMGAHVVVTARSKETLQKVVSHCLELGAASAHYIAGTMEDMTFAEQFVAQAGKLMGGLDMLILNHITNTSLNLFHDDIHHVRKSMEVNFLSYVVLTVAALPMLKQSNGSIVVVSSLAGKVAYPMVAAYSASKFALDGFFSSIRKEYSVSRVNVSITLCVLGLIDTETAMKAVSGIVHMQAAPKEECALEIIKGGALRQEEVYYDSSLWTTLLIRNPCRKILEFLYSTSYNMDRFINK", "settings": "substrate of 11β-HSD1, cited from earlier work"}, "human 11β-HSD1 [4]": {"target": "T2, human 11β-HSD1", "set-up": "method as in PMID 30902677", "settings": "intact cells, oxoreduction by 11β-HSD1, ref [46], cited from earlier work"}, "RORγ": {"target": "T3, RORγ (Homo sapiens, UniProt P51449)", "T3 sequence (P51449 1-518)": "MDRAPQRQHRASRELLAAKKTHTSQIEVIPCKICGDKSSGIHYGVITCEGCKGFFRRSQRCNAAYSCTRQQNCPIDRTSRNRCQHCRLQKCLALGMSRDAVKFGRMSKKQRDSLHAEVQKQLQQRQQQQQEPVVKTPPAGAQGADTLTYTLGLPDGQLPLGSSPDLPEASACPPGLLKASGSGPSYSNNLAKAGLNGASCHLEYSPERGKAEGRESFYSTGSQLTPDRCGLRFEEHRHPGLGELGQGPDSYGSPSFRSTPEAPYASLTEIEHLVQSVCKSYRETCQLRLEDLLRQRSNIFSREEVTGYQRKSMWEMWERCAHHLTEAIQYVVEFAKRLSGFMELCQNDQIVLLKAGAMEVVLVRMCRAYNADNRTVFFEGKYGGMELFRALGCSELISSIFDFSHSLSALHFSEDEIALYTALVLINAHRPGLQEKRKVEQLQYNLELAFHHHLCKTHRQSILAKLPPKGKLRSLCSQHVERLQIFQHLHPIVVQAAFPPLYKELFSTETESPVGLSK", "assay": "Glucose-6-phosphatase luciferase reporter in SW-620 cells overexpressing RORγ (preliminary)", "type": "cell-based", "set-up": "expressed in transfected cells; host or cells: SW-620", "settings": "inhibition of 11β-HSD2 by GA in SW-620 cells, trend"}}, "note": "Read-outs that look alike come from different tables or passages of the source.", "data": [{"compound": "C[C@]12CCC(=O)C=C1CC[C@@H]1[C@@H]2[C@@H](O)C[C@@]2(C)[C@H]1CC[C@]2(O)C(=O)CO", "note": "[cortisol]", "values": [{"measurement": "Vapp cell intact", "setting": "11β-HSD2 [1]", "value": "1.01 ± 0.35 nmol·h^−1·mg total protein^−1"}, {"measurement": "Vapp cell intact", "setting": "11β-HSD2 [1]; listed as Cortisol", "value": "1.01 ± 0.35 ([46]) nmol·h^−1·mg total protein^−1"}, {"measurement": "KMapp", "setting": "11β-HSD2 [2]", "value": "~200", "unit": "nM"}, {"measurement": "KMapp", "setting": "11β-HSD2 [2]; listed as Cortisol", "value": "200 ([34]) nM"}]}, {"compound": "C[C@]12CCC(=O)C=C1CC[C@@H]1[C@@H]2C(=O)C[C@@]2(C)[C@H]1CC[C@]2(O)C(=O)CO", "note": "[cortisone, reference compound]", "values": [{"measurement": "KMapp", "setting": "human 11β-HSD1 [3]; ref [19], [34]", "value": "250 to 500", "unit": "nM"}, {"measurement": "KMapp", "setting": "human 11β-HSD1 [3]; ref [19], [34], listed as Cortisone", "value": "250–500 ([19], [34]) nM"}, {"measurement": "Vapp cell intact", "setting": "human 11β-HSD1 [4]", "value": "1.59 ± 0.25 nmol·h^−1·mg total protein^−1"}, {"measurement": "Vapp cell intact", "setting": "human 11β-HSD1 [4]; listed as Cortisone", "value": "1.59 ± 0.25 ([46]) nmol·h^−1·mg total protein^−1"}]}, {"compound": "CC(C)CCC[C@@H](C)[C@H]1CC[C@H]2[C@@H]3C(=O)C=C4C[C@@H](O)CC[C@]4(C)[C@H]3CC[C@]12C", "note": "[7kC, 7-ketocholesterol]", "values": [{"measurement": "KMapp", "setting": "human 11β-HSD1 [3]; ref [19]", "value": "~500", "unit": "nM"}]}, {"compound": "C[C@H](CCC(=O)O)[C@H]1CC[C@H]2[C@@H]3C(=O)C[C@@H]4C[C@H](O)CC[C@]4(C)[C@H]3CC[C@]12C", "note": "[7oxoLCA, 7-oxolithocholic acid]", "values": [{"measurement": "KMapp", "setting": "human 11β-HSD1 [3]; ref [49]", "value": "~1000", "unit": "nM"}]}, {"compound": "C[C@]12CC(=O)[C@H]3[C@@H](CCC4=CC(=O)CC[C@@]43C)[C@@H]1CC[C@@H]2C(=O)CO", "note": "[11-DHC, 11-dehydrocorticosterone]", "values": [{"measurement": "KMapp", "setting": "human 11β-HSD1 [3]; ref [19], [34]", "value": "250 to 500", "unit": "nM"}]}, {"compound": "CC1(C)[C@@H](O)CC[C@]2(C)[C@H]3C(=O)C=C4[C@@H]5C[C@@](C)(C(=O)O)CC[C@]5(C)CC[C@@]4(C)[C@]3(C)CC[C@@H]12", "note": "[GA, glycyrrhetinic acid]", "values": [{"measurement": "Increase of RORγ activity compared with cells treated with 7β27OHC only", "setting": "RORγ", "value": "approximately 10%"}]}]}
